{"source": "patent US6586183B2", "about": "“Association of β2-adrenergic receptor haplotypes with drug response” (Genaissance Pharmaceuticals, Inc., priority 2000, dated 2003)", "tested_on": "asthma patients", "test": "Bronchodilator response (spirometry, FEV1) of asthma patients to inhaled albuterol, by β2AR haplotype pair", "format": "in vivo, human", "method": "The patients in the asthma cohort were enrolled from an outpatient facility as described in detail elsewhere (Yan, L., Galinsky, R. E., Bernstein, J. A., Liggett, S. B. & Weinshilboum, R. M. (1999) Pharmacogenetics in Press). […] Forced expiratory volume in 1 second (FEV1) and forced vital capacity (FVC) were determined in triplicate. The predicted values for these measurements were calculated based on standard algorithms (Morris, J. F., Koski, A. & Johnson, L. C. (1971) Am Rev Respir Dis 103, 57-67).\nThe association between changes in % predicted FEV1 and haplotype pair was assessed by fitting an analysis of covariance model (ANCOVA) with terms for haplotype pair, sex and baseline severity. P-values from pairwise comparisons by haplotype pair were adjusted for multiple comparisons by applying the Holm-Sidak step-down procedure (Ludbrook, J. (1998) Clin and Exp Pharmacology & Physiology 25, 1032-1037.). […] In addition, the African-American asthma patients were excluded from the analysis due to the low number of individuals in this population group. For the analysis of individual SNPs, a similar ANCOVA model was employed with a discrete term for SNP genotype, and terms for sex and baseline severity. The Holm-Sidak step-down procedure was used to adjust the p-values from the individual SNP analyses for the number of tests performed.\nPairwise tests were made while correcting for multiple comparisons. […] For this analysis, a similar ANCOVA model as above was utilized. […] Since 0, 1 or 2 copies of these two haplotypes are present in our population as haplotype pairs 2/2, 2/4 and 4/4, a potential gene dose effect can be assessed by regression analysis."}
{"compound": "CC(C)(C)NCC(O)c1ccc(O)c(CO)c1", "note": "(stereo not drawn) [albuterol]", "values": [{"measurement": "bronchodilator response to albuterol", "setting": "asthmatic patients with haplotype pair 2/6", "result": "moderate bronchodilator response"}, {"measurement": "bronchodilator response to albuterol", "setting": "asthmatic patients with haplotype pairs 2/2 and 4/6", "result": "respond well"}, {"measurement": "bronchodilator response to albuterol", "setting": "asthmatic patients with haplotype pairs 2/4 and 4/4", "result": "little to no response"}]}
